In brackets after ≈: the same amount, converted by molar mass.

This is an account of results in ChEMBL document CHEMBL4680080 (J Med Chem, 2016).

Data set [1] in a line: Drug metabolism in liver of fistula Wistar-Han rat model assessed as drug recovery of taurine conjugate at 60 umol/kg, iv by HPLC-ES-MS/MS analysis. It counts as ADME, organism-based. Particulars: in vivo, dose 60 µmol/kg.
The next data set can be described thus: physchem. Particulars: water.
Data set [2] is described as follows: Stability in bile of fistula Wistar-Han rat model assessed as drug recovery of unmodified compound at 60 umol/kg, iv by HPLC-ES-MS/MS analysis. It counts as ADME, organism-based. Particulars: at 60 µmol/kg, read-out: Drug recovery.
Data set [3] in a line: Stability in fistula Wistar-Han rat model assessed as drug stability in intestinal bacteria at 60 umol/kg, iv by HPLC-ES-MS/MS analysis. The format is ADME, organism-based, Intestine. Particulars: in vivo, at 60 µmol/kg.
Data set [4] is described as follows: Drug metabolism in bile of fistula Wistar-Han rat model assessed as taurine conjugate formation at 60 umol/kg, iv by HPLC-ES-MS/MS analysis. The format is ADME, organism-based. Particulars: in vivo, dose 60 µmol/kg.

Take `CC[C@H]1[C@@H](O)[C@@H]2[C@H]([C@@H](O)C[C@]3(C)[C@@H]([C@H](C)CCC(=O)O)CC[C@@H]23)[C@@]2(C)CC[C@@H](O)C[C@@H]12`: the Drug metabolism entry in data set [1] is given as “Metabolite_Notdetected”. In the data set “physchem”, the solubility is 150 µM (≈ 65.5 µg/mL). The dose excreted in data set [2] was found to be 50%. For the same compound, the Stabilty result in data set [3] was “Stable”.

On to `C[C@H](CCC(=O)O)[C@H]1CC[C@H]2[C@@H]3[C@H](O)C[C@@H]4C[C@H](O)CC[C@]4(C)[C@H]3CC[C@]12C` [CHENODIOL], for which, in data set [4], the Drug metabolism result is on record as “Metabolite_Detected”.

As for `C[C@H](CCC(=O)O)[C@H]1CC[C@H]2[C@@H]3[C@H](O)C[C@@H]4C[C@H](O)CC[C@]4(C)[C@H]3C[C@H](O)[C@]12C` [CHOLIC ACID], the dose excreted in data set [2] was found to be 10%.

As to `CC[C@H]1[C@@H](O)[C@@H]2[C@H](CC[C@]3(C)[C@@H]([C@H](C)CCC(=O)O)CC[C@@H]23)[C@@]2(C)CC[C@@H](O)C[C@@H]12` [OBETICHOLIC ACID], the Drug metabolism result in data set [4] was “Metabolite_Detected”. For the same compound, the concentration in solution in the data set “physchem” (solubility) came to 9 µM (≈ 3.79 µg/mL).

Regarding `C[C@H](CCC(=O)O)[C@H]1CC[C@H]2[C@@H]3[C@@H](O)C[C@@H]4C[C@H](O)CC[C@]4(C)[C@H]3CC[C@]12C` [URSODIOL], the Drug metabolism result in data set [4] is “Metabolite_Detected”. Also, the solubility in “physchem” was determined as 7 µM (≈ 2.75 µg/mL).
